Values belong to the compound of their own block, whether it stands above or below them.
Experiments:
Assay in all cases: radiometric filter-binding kinase assay
EEF2K (human) = EEF2K (human) (UniProt O00418)
MAPK10 (human) = MAPK10 (human) (UniProt P53779)
PHKG1 (human) = PHKG1 (human) (UniProt Q16816)
MINK1 (human) = MINK1 (human) (UniProt Q8N4C8)
FLT1 (human) = FLT1 (human) (UniProt P17948)
PRKACA (human) = PRKACA (human) (UniProt P17612)
[1] = tested on: PAK2 (human), Q13177 [T402E]
DYRK2 (human) = DYRK2 (human) (UniProt Q92630)
DYRK2 (human), sequence (Q92630 whole entry, looked up): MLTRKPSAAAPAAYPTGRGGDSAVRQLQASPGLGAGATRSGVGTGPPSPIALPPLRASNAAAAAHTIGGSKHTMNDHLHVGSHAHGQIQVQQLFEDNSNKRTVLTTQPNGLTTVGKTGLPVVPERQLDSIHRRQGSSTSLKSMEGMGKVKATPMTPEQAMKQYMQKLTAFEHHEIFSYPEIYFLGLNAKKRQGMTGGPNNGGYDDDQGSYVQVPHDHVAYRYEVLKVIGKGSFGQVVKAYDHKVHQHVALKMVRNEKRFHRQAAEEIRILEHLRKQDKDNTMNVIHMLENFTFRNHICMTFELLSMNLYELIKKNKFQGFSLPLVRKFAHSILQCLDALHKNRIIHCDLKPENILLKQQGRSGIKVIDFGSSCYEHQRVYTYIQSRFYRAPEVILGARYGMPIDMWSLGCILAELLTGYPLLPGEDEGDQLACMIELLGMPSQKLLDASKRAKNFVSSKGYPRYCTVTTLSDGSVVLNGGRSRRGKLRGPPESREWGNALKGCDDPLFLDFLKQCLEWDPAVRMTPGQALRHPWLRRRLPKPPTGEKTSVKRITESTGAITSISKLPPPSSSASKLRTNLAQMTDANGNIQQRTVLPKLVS

GCK (human) = GCK (human) (UniProt Q12851)
AURKA (human) = AURKA (human) (UniProt O14965)
MAPK15 (human) = MAPK15 (human) (UniProt Q8TD08)
CDK2 CCNA2 (human) = CDK2 CCNA2 (human) (UniProt P20248+P24941)
PIM3 (human) = PIM3 (human) (UniProt Q86V86)
[2] = tested on: SGK1 (human), O00141 [S422D]
SGK1 (human), O00141 [S422D], sequence (O00141 whole entry S422D, looked up): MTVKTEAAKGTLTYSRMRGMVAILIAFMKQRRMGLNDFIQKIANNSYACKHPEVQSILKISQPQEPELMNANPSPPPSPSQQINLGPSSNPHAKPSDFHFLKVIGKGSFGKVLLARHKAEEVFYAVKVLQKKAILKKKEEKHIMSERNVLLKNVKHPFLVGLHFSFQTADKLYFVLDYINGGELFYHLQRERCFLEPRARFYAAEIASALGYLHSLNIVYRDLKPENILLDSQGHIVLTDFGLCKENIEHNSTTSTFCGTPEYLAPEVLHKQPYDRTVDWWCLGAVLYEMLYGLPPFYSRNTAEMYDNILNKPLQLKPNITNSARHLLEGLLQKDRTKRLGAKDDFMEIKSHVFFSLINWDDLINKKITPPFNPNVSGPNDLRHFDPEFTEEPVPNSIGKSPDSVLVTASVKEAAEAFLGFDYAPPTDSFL

MAPKAPK5 (human) = MAPKAPK5 (human) (UniProt Q8IW41)
EPHA2 (human) = EPHA2 (human) (UniProt P29317)
BRSK1 (human) = BRSK1 (human) (UniProt Q8TDC3)
MST4 (human) = MST4 (human) (UniProt Q9P289)
MST4 (human), sequence (Q9P289 whole entry, looked up): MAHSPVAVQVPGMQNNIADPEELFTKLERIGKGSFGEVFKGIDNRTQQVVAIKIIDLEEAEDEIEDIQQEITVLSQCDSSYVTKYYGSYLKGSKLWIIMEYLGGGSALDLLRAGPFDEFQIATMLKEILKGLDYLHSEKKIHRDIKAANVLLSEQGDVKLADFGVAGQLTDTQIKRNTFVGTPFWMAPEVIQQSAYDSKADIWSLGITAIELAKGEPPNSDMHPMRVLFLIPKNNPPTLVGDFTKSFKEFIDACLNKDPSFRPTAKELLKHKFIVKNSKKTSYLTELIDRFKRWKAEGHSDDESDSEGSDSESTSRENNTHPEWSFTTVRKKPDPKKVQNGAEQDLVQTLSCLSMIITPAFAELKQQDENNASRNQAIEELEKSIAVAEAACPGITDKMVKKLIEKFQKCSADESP

PIM2 (human) = PIM2 (human) (UniProt Q9P1W9)
AURKB (human) = AURKB (human) (UniProt Q96GD4)
AURKB (human), sequence (Q96GD4 whole entry, looked up): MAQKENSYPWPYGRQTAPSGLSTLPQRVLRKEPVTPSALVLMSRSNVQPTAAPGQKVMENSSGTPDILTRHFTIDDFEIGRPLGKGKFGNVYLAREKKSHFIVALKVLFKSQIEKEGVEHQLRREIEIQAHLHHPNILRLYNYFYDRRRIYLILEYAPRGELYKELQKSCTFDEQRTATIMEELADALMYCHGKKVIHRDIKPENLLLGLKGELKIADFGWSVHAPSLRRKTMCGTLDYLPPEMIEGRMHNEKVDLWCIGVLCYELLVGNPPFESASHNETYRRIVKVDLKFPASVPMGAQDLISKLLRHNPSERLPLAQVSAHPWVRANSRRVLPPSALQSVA

SRPK1 (human) = SRPK1 (human) (UniProt Q96SB4)
CHEK1 (human) = CHEK1 (human) (UniProt O14757)
CHEK1 (human), sequence (O14757 whole entry, looked up): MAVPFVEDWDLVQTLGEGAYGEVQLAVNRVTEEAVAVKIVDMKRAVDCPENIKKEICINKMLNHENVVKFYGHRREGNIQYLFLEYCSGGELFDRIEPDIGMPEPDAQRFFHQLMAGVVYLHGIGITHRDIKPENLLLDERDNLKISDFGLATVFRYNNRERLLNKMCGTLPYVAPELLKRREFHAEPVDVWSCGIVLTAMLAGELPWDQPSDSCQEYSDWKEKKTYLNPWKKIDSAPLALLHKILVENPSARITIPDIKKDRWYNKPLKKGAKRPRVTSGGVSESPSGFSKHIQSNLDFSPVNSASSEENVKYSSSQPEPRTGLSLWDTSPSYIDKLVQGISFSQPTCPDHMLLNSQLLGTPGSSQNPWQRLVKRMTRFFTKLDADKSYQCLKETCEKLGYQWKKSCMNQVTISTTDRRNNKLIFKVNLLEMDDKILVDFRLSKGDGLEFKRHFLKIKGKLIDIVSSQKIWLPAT

RPS6KA3 KD1 KD2 (human) = RPS6KA3 KD1 KD2 (human) (UniProt P51812)
RPS6KA3 KD1 KD2 (human), sequence (P51812 whole entry, looked up): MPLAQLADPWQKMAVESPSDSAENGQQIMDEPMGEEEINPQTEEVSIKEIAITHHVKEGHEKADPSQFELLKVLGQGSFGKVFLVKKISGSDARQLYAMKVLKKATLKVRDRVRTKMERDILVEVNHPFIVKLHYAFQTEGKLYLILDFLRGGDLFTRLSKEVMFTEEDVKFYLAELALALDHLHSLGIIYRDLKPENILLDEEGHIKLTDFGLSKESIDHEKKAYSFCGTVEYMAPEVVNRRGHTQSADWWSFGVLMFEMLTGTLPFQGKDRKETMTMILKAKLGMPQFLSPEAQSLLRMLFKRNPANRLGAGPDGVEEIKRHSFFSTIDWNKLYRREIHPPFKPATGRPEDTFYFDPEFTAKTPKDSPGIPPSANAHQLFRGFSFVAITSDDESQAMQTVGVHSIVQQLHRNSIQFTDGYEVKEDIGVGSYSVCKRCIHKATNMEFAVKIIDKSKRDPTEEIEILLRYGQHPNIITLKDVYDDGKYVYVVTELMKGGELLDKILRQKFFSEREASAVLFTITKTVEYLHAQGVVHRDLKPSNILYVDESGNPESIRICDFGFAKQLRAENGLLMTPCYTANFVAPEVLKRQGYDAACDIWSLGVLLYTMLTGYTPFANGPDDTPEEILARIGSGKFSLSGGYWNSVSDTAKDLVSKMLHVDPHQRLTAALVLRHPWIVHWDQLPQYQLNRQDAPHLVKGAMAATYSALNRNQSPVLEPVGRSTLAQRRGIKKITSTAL

RIPK2 (human) = RIPK2 (human) (UniProt O43353)
FGFR1 (human) = FGFR1 (human) (UniProt P11362)
CSNK2A1 (human) = CSNK2A1 (human) (UniProt P68400)
CSNK2A1 (human), sequence (P68400 whole entry, looked up): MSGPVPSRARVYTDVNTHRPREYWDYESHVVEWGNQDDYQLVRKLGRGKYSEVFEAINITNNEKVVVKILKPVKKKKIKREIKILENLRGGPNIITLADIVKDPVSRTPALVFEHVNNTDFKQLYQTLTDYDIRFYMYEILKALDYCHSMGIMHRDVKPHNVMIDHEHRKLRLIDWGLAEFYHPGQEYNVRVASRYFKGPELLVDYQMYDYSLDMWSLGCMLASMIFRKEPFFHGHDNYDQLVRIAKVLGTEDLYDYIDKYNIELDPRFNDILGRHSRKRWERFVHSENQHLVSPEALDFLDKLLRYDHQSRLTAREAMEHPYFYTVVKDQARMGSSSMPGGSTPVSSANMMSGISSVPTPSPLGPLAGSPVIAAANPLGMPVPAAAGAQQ

MELK (human) = MELK (human) (UniProt Q14680)
MELK (human), sequence (Q14680 whole entry, looked up): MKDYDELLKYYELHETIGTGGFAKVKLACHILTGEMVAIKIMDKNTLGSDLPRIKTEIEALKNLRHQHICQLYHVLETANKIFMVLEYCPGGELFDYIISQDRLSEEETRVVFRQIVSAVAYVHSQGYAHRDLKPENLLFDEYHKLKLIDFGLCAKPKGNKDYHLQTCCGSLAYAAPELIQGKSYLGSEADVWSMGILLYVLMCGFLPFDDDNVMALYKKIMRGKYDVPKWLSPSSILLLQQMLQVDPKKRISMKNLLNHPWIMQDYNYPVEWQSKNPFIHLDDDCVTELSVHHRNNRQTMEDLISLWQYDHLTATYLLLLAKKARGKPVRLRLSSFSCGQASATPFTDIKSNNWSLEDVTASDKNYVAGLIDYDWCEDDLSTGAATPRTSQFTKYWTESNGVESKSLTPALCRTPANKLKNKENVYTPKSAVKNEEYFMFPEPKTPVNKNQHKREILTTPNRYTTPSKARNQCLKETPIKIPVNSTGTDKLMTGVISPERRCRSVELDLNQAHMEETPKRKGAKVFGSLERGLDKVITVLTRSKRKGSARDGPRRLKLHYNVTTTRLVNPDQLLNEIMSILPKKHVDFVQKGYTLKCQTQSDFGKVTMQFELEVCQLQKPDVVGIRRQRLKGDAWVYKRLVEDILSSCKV

MAPK12 (human) = MAPK12 (human) (UniProt P53778)
BTK (human) = BTK (human) (UniProt Q06187)
PRKCA (human) = PRKCA (human) (UniProt P17252)
INSRR (human) = INSRR (human) (UniProt P14616)
ERBB4 (human) = ERBB4 (human) (UniProt Q15303)
MAPKAPK3 (human) = MAPKAPK3 (human) (UniProt Q16644)

PAK2 (human), Q13177 [T402E], sequence (Q13177 whole entry T402E, looked up): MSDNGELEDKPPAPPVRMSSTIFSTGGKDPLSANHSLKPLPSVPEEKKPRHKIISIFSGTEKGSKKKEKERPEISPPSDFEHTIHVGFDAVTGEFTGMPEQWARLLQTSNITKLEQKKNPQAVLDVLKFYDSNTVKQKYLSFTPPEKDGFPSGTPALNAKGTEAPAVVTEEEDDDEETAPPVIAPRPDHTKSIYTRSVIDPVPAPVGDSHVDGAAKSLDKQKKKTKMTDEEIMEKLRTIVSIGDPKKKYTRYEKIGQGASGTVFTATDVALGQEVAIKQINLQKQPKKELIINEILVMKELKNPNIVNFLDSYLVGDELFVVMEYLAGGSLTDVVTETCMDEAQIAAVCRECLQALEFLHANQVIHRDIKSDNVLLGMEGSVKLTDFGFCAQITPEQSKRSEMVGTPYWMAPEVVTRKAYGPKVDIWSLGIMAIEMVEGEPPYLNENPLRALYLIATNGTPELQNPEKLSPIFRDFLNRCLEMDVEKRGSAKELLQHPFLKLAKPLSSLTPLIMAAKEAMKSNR

residual activity (EEF2K (human); compound 1.0 µM): 95%
residual activity (EEF2K (human); compound 10.0 µM): 109%
residual activity (MAPK10 (human); compound 1.0 µM): 105%
residual activity (MAPK10 (human); compound 10.0 µM): 107%
residual activity (PHKG1 (human); compound 1.0 µM): 104%
residual activity (PHKG1 (human); compound 10.0 µM): 94%
residual activity (MINK1 (human); compound 10.0 µM): 57%
residual activity (FLT1 (human); compound 1.0 µM): 102%
residual activity (FLT1 (human); compound 10.0 µM): 105%
residual activity (PRKACA (human); compound 1.0 µM): 111%
residual activity (PRKACA (human); compound 10.0 µM): 114%
residual activity ([1]; compound 1.0 µM): 108%
residual activity ([1]; compound 10.0 µM): 94%
residual activity (DYRK2 (human); compound 1.0 µM): 99%
residual activity (DYRK2 (human); compound 10.0 µM): 79%
residual activity (GCK (human); compound 1.0 µM): 101%
residual activity (GCK (human); compound 10.0 µM): 96%
residual activity (AURKA (human); compound 10.0 µM): 100%
residual activity (CDK2 CCNA2 (human); compound 1.0 µM): 93%
residual activity (CDK2 CCNA2 (human); compound 10.0 µM): 107%
residual activity (PIM3 (human); compound 1.0 µM): 63%
residual activity (PIM3 (human); compound 10.0 µM): 18%
residual activity ([2]; compound 1.0 µM): 76%
residual activity ([2]; compound 10.0 µM): 54%
residual activity (MAPKAPK5 (human); compound 1.0 µM): 92%
residual activity (MAPKAPK5 (human); compound 10.0 µM): 90%
residual activity (EPHA2 (human); compound 1.0 µM): 119%
residual activity (BRSK1 (human); compound 1.0 µM): 97%
residual activity (BRSK1 (human); compound 10.0 µM): 92%
residual activity (MST4 (human); compound 1.0 µM): 102%
residual activity (MST4 (human); compound 10.0 µM): 104%
residual activity (PIM2 (human); compound 1.0 µM): 98%
residual activity (PIM2 (human); compound 10.0 µM): 77%
residual activity (AURKB (human); compound 1.0 µM): 104%
residual activity (AURKB (human); compound 10.0 µM): 105%
residual activity (SRPK1 (human); compound 1.0 µM): 106%
residual activity (SRPK1 (human); compound 10.0 µM): 104%
residual activity (CHEK1 (human); compound 1.0 µM): 104%
residual activity (CHEK1 (human); compound 10.0 µM): 109%
residual activity (RPS6KA3 KD1 KD2 (human); compound 1.0 µM): 97%
residual activity (RPS6KA3 KD1 KD2 (human); compound 10.0 µM): 91%
residual activity (RIPK2 (human); compound 1.0 µM): 115%
residual activity (RIPK2 (human); compound 10.0 µM): 95%
residual activity (FGFR1 (human); compound 1.0 µM): 110%
residual activity (FGFR1 (human); compound 10.0 µM): 115%
residual activity (CSNK2A1 (human); compound 1.0 µM): 83%
residual activity (CSNK2A1 (human); compound 10.0 µM): 29%
residual activity (MELK (human); compound 1.0 µM): 113%
residual activity (MELK (human); compound 10.0 µM): 101%
residual activity (MAPK12 (human); compound 1.0 µM): 97%
residual activity (MAPK12 (human); compound 10.0 µM): 100%
residual activity (BTK (human); compound 1.0 µM): 97%
residual activity (BTK (human); compound 10.0 µM): 74%
residual activity (PRKCA (human); compound 1.0 µM): 90%
residual activity (PRKCA (human); compound 10.0 µM): 85%
residual activity (INSRR (human); compound 10.0 µM): 80%
residual activity (ERBB4 (human); compound 1.0 µM): 100%
residual activity (ERBB4 (human); compound 10.0 µM): 77%
residual activity (MAPKAPK3 (human); compound 1.0 µM): 116%
residual activity (MAPKAPK3 (human); compound 10.0 µM): 85%
SMILES: O=C(O)c1cc(N=Nc2ccc(S(=O)(=O)Nc3ccccn3)cc2)ccc1O
residual activity (MAPK15 (human); compound 1.0 µM): 111%
residual activity (MAPK15 (human); compound 10.0 µM): 109%

residual activity (EEF2K (human); compound 0.1 µM): 102%
residual activity (EEF2K (human); compound 1.0 µM): 100%
residual activity (MAPK10 (human); compound 0.1 µM): 119%
residual activity (MAPK10 (human); compound 1.0 µM): 99%
residual activity (PHKG1 (human); compound 0.1 µM): 100%
residual activity (PHKG1 (human); compound 1.0 µM): 112%
residual activity (MINK1 (human); compound 0.1 µM): 66%
residual activity (MINK1 (human); compound 1.0 µM): 13%
residual activity (FLT1 (human); compound 0.1 µM): 27%
residual activity (FLT1 (human); compound 1.0 µM): 8%
residual activity (PRKACA (human); compound 0.1 µM): 109%
residual activity (PRKACA (human); compound 1.0 µM): 99%
residual activity ([1]; compound 0.1 µM): 111%
residual activity ([1]; compound 1.0 µM): 101%
residual activity (DYRK2 (human); compound 0.1 µM): 100%
residual activity (DYRK2 (human); compound 1.0 µM): 95%
residual activity (GCK (human); compound 0.1 µM): 98%
residual activity (GCK (human); compound 1.0 µM): 68%
residual activity (AURKA (human); compound 0.1 µM): 120%
residual activity (AURKA (human); compound 1.0 µM): 107%
residual activity (CDK2 CCNA2 (human); compound 0.1 µM): 93%
residual activity (CDK2 CCNA2 (human); compound 1.0 µM): 102%
residual activity (PIM3 (human); compound 0.1 µM): 91%
residual activity (PIM3 (human); compound 1.0 µM): 117%
residual activity ([2]; compound 0.1 µM): 107%
residual activity ([2]; compound 1.0 µM): 103%
residual activity (MAPKAPK5 (human); compound 0.1 µM): 113%
residual activity (MAPKAPK5 (human); compound 1.0 µM): 99%
residual activity (EPHA2 (human); compound 0.1 µM): 105%
residual activity (EPHA2 (human); compound 1.0 µM): 92%
residual activity (BRSK1 (human); compound 0.1 µM): 110%
residual activity (BRSK1 (human); compound 1.0 µM): 95%
residual activity (MST4 (human); compound 0.1 µM): 95%
residual activity (MST4 (human); compound 1.0 µM): 99%
residual activity (PIM2 (human); compound 0.1 µM): 97%
residual activity (PIM2 (human); compound 1.0 µM): 94%
residual activity (AURKB (human); compound 0.1 µM): 98%
residual activity (AURKB (human); compound 1.0 µM): 102%
residual activity (SRPK1 (human); compound 0.1 µM): 101%
residual activity (SRPK1 (human); compound 1.0 µM): 84%
residual activity (CHEK1 (human); compound 0.1 µM): 107%
residual activity (CHEK1 (human); compound 1.0 µM): 105%
residual activity (RPS6KA3 KD1 KD2 (human); compound 0.1 µM): 126%
residual activity (RPS6KA3 KD1 KD2 (human); compound 1.0 µM): 109%
residual activity (RIPK2 (human); compound 0.1 µM): 26%
residual activity (RIPK2 (human); compound 1.0 µM): 9%
residual activity (FGFR1 (human); compound 0.1 µM): 64%
residual activity (FGFR1 (human); compound 1.0 µM): 37%
residual activity (CSNK2A1 (human); compound 0.1 µM): 102%
residual activity (CSNK2A1 (human); compound 1.0 µM): 104%
residual activity (MELK (human); compound 0.1 µM): 111%
residual activity (MELK (human); compound 1.0 µM): 105%
residual activity (MAPK12 (human); compound 0.1 µM): 102%
residual activity (MAPK12 (human); compound 1.0 µM): 88%
residual activity (BTK (human); compound 0.1 µM): 110%
residual activity (BTK (human); compound 1.0 µM): 104%
residual activity (PRKCA (human); compound 0.1 µM): 97%
residual activity (PRKCA (human); compound 1.0 µM): 102%
residual activity (INSRR (human); compound 0.1 µM): 98%
residual activity (INSRR (human); compound 1.0 µM): 103%
residual activity (ERBB4 (human); compound 0.1 µM): 104%
residual activity (ERBB4 (human); compound 1.0 µM): 82%
residual activity (MAPKAPK3 (human); compound 0.1 µM): 107%
residual activity (MAPKAPK3 (human); compound 1.0 µM): 97%
SMILES: Cc1cccc(-c2nn(C(=S)Nc3ccccc3)cc2-c2ccnc3ccccc23)n1
residual activity (MAPK15 (human); compound 0.1 µM): 108%
residual activity (MAPK15 (human); compound 1.0 µM): 93%
